Assay results reported in ChEMBL document CHEMBL3785058, “Design and synthesis of novel 3-sulfonylpyrazol-4-amino pyrimidines as potent anaplastic lymphoma kinase (ALK) inhibitors” (Bioorg Med Chem Lett, 2016).
Activity calls are given as the source filed them. The calls are words filed in the database; no cut-off is given here.

How the values were obtained:
[1] = target: ALK tyrosine kinase receptor (Homo sapiens, UniProt Q9UM73); experiment: Inhibition of recombinant human wild type ALK using tyrosine kinase substrate-biotin after 30 mins by HTRF assay
[2] = target: ALK tyrosine kinase receptor (Homo sapiens, UniProt Q9UM73, L1196M); experiment: Inhibition of recombinant human ALK L1196M mutant using tyrosine kinase substrate-biotin after 30 mins by HTRF assay
NCI-H2228 [3] = experiment: Antiproliferative activity against human NCI-H2228 cells after 96 hrs by CellTiter-Glo assay; assay type: functional, cell-based; conditions: NCI-H2228, 96 h
[4] = Ratio of IC50 for human ERG to IC50 for human NCI-H2228 cells
[5] = Antiproliferative activity against human KARPAS299 cells after 96 hrs by CellTiter-Glo assay; assay type: functional, cell-based; conditions: KARPAS-299, 96 h
Mus musculus [6] = experiment: In vivo inhibition of ALK in human KARPAS299 cells xenografted in mouse assessed as suppression of STAT3 phosphorylation at 20 mg/kg measured after 8 hrs; assay type: functional; conditions: KARPAS-299, 8 h
[7] = Half life in Balb/c nude mouse at 1 mg/kg, iv; assay type: ADME, organism-based; conditions: in vivo
[8] = AUC(0 to infinity) in Balb/c nude mouse at 1 mg/kg, iv; assay type: ADME, organism-based; parameters: dose 1 mg/kg, route intravenous, time infinity; conditions: in vivo
[9] = Volume of distribution in Balb/c nude mouse at 1 mg/kg, iv; assay type: ADME, organism-based; conditions: in vivo
[10] = Clearance in Balb/c nude mouse at 1 mg/kg, iv; assay type: ADME, organism-based; conditions: in vivo
[11] = Half life in Sprague-Dawley rat at 1 mg/kg, iv; assay type: ADME, organism-based; conditions: in vivo
[12] = AUC(0 to infinity) in Sprague-Dawley rat at 1 mg/kg, iv; assay type: ADME, organism-based; parameters: dose 1 mg/kg, route intravenous, time infinity; conditions: in vivo
[13] = Volume of distribution in Sprague-Dawley rat at 1 mg/kg, iv; assay type: ADME, organism-based; conditions: in vivo
[14] = Clearance in Sprague-Dawley rat at 1 mg/kg, iv; assay type: ADME, organism-based; conditions: in vivo
[15] = Half life in Beagle dog at 1 mg/kg, iv; assay type: ADME, organism-based, Canis lupus familiaris; conditions: in vivo
[16] = AUC(0 to infinity) in Beagle dog at 1 mg/kg, iv; assay type: ADME, organism-based, Canis lupus familiaris; parameters: dose 1 mg/kg, time infinity, route intravenous; conditions: in vivo
[17] = Volume of distribution in Beagle dog at 1 mg/kg, iv; assay type: ADME, organism-based, Canis lupus familiaris; conditions: in vivo
[18] = Clearance in Beagle dog at 1 mg/kg, iv; assay type: ADME, organism-based, Canis lupus familiaris; conditions: in vivo
[19] = Cmax in Balb/c nude mouse at 5 mg/kg, po; assay type: ADME, organism-based; parameters: dose 5 mg/kg, route oral; conditions: in vivo
[20] = Tmax in Balb/c nude mouse at 5 mg/kg, po; assay type: ADME, organism-based; conditions: in vivo
[21] = AUC(0 to infinity) in Balb/c nude mouse at 5 mg/kg, po; assay type: ADME, organism-based; parameters: dose 5 mg/kg, time infinity, route oral; conditions: in vivo
[22] = Oral bioavailability in Balb/c nude mouse at 5 mg/kg; assay type: ADME, organism-based; conditions: in vivo
[23] = Cmax in Sprague-Dawley rat at 5 mg/kg, po; assay type: ADME, organism-based; parameters: dose 5 mg/kg, route oral; conditions: in vivo
[24] = Tmax in Sprague-Dawley rat at 5 mg/kg, po; assay type: ADME, organism-based; conditions: in vivo
[25] = AUC(0 to infinity) in Sprague-Dawley rat at 5 mg/kg, po; assay type: ADME, organism-based; parameters: dose 5 mg/kg, route oral, time infinity; conditions: in vivo
[26] = Oral bioavailability in Sprague-Dawley rat at 5 mg/kg; assay type: ADME, organism-based; conditions: in vivo
[27] = Cmax in Beagle dog at 3 mg/kg, po; assay type: ADME, organism-based, Canis lupus familiaris; parameters: dose 3 mg/kg, route oral; conditions: in vivo
[28] = Tmax in Beagle dog at 3 mg/kg, po; assay type: ADME, organism-based, Canis lupus familiaris; conditions: in vivo
[29] = AUC(0 to infinity) in Beagle dog at 3 mg/kg, po; assay type: ADME, organism-based, Canis lupus familiaris; parameters: dose 3 mg/kg, route oral, time infinity; conditions: in vivo
[30] = Oral bioavailability in Beagle dog at 3 mg/kg; assay type: ADME, organism-based, Canis lupus familiaris; conditions: in vivo
NCI-H2228 [31] = experiment: Antitumor activity against human NCI-H2228 cells xenografted in Balb/c nude mouse assessed as tumor growth inhibition at 3 mg/kg, po qd administered for two weeks measured on day 14 post last dose; assay type: functional; conditions: 336 h, read-out: TGI
NCI-H2228 [32] = experiment: Antitumor activity against human NCI-H2228 cells xenografted in Balb/c nude mouse assessed as tumor growth inhibition at 30 mg/kg, po qd administered for two weeks measured on day 14 post last dose; assay type: functional; conditions: 336 h, read-out: TGI
Mus musculus [33] = experiment: Toxicity in Balb/c nude mouse xenografted with human NCI-H2228 cells assessed as change in body weight at 30 mg/kg, po qd administered for two weeks; assay type: organism-based; conditions: in vivo
NCI-H2228 [34] = conditions: Homo sapiens
Description: Antitumor activity against human NCI-H2228 cells xenografted in Balb/c nude mouse assessed as tumor growth inhibition administered as po qd for two weeks

NCI-H2228 [35] = conditions: Homo sapiens; remark: listed apart in the source
Description: Antitumor activity against human NCI-H2228 cells xenografted in Balb/c nude mouse assessed as tumor growth inhibition at 10 mg/kg, po qd administered for two weeks

NCI-H2228 [36] = conditions: Homo sapiens; remark: listed apart in the source
Description: Antitumor activity against human NCI-H2228 cells xenografted in Balb/c nude mouse assessed as tumor growth inhibition at 30 mg/kg, po qd administered for two weeks measured after 1 week during compound dosing

Sequence of ALK tyrosine kinase receptor (Homo sapiens, UniProt Q9UM73) (Q9UM73 whole entry): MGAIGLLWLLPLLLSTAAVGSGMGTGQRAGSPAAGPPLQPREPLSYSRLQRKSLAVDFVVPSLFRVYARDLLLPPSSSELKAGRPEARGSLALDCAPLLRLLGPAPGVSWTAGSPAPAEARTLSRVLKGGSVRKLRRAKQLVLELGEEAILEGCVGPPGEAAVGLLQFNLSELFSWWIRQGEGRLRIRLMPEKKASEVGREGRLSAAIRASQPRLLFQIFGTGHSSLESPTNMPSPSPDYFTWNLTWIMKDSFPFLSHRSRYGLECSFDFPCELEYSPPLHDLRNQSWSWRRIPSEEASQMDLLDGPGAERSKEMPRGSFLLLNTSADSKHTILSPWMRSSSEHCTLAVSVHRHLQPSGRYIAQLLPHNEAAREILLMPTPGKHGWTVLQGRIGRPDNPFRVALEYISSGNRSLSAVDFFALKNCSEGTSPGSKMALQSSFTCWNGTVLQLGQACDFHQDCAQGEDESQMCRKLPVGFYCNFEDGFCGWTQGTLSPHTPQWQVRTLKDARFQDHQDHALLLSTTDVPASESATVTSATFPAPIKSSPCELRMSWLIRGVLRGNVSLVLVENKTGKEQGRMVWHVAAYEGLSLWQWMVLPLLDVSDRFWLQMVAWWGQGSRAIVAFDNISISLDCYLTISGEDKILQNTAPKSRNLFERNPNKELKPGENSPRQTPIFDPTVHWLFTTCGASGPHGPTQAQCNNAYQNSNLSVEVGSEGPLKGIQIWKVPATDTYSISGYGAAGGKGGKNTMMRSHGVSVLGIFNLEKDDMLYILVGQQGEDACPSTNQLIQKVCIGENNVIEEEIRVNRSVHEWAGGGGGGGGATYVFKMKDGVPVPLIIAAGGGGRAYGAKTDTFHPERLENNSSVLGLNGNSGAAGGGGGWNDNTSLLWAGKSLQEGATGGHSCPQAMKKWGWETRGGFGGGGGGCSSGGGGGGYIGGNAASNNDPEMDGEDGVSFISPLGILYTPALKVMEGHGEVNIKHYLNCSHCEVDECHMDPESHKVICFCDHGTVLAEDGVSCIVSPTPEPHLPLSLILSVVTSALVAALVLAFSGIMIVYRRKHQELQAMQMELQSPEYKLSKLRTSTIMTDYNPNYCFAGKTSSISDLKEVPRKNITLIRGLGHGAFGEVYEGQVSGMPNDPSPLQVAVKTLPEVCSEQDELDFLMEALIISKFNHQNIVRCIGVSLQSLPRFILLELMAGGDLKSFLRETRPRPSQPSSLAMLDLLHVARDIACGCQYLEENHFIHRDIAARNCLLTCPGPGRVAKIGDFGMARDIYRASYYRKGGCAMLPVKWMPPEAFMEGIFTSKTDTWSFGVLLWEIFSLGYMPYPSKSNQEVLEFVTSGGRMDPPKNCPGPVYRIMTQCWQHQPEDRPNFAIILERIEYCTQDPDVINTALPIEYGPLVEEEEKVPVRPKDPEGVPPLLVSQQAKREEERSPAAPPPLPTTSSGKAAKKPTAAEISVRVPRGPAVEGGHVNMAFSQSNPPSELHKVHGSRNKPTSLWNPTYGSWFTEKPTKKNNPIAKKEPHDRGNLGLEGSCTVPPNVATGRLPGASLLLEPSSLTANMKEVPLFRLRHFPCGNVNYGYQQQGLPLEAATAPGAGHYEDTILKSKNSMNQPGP
Sequence of ALK tyrosine kinase receptor (Homo sapiens, UniProt Q9UM73, L1196M) (Q9UM73 19-1620 L1196M limits assumed): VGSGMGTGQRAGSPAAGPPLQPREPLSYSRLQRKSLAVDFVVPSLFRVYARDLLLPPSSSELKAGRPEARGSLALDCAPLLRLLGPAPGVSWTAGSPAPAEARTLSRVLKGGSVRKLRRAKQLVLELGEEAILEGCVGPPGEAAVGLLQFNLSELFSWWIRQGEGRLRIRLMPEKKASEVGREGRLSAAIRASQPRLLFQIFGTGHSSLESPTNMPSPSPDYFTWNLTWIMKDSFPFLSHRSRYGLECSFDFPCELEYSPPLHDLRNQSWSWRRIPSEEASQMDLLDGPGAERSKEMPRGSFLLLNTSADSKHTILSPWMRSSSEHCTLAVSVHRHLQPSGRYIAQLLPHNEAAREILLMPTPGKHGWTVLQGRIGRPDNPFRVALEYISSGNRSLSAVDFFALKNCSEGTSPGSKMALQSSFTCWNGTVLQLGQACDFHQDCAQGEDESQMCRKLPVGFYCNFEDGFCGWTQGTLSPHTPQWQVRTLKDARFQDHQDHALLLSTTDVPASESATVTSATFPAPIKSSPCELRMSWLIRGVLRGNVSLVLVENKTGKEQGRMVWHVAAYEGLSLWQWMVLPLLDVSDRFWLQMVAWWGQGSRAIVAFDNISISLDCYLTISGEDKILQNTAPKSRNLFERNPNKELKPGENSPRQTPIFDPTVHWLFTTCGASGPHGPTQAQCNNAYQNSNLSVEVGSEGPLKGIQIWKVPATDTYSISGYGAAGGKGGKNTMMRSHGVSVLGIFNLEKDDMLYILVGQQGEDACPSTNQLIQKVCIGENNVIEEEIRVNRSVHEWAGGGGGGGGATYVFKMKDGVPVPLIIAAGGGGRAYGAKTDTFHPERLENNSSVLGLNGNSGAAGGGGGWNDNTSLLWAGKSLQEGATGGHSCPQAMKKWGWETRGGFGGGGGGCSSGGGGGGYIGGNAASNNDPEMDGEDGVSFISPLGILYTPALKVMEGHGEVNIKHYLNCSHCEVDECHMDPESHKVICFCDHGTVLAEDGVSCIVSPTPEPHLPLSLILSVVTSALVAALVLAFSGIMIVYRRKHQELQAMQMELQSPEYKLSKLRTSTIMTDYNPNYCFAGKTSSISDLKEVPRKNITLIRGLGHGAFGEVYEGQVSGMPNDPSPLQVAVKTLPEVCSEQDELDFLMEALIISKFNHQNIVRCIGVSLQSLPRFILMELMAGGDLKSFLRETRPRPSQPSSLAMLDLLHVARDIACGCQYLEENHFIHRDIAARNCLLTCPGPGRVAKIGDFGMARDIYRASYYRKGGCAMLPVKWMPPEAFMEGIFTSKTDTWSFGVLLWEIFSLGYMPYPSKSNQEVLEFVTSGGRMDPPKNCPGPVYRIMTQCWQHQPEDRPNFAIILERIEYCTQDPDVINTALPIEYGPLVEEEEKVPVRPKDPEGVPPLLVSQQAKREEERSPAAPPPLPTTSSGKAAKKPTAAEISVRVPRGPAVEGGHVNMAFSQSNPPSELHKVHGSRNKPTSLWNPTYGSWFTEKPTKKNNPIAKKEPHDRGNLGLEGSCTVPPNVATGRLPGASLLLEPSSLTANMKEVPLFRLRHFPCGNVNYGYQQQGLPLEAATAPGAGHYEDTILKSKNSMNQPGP

Structure (SMILES): Cc1cc(Nc2ncc(Cl)c(Nc3cn(C)nc3S(=O)(=O)C(C)C)n2)c(OC2CC2)cc1C1CCS(=O)(=O)CC1
- IC50 [1]: 3 nM
- IC50 [2]: 9 nM
- IC50 (NCI-H2228 [3]): 97 nM
- Ratio IC50 [4]: 206

Structure (SMILES): Cc1cc(Nc2ncc(Cl)c(Nc3cn(C)nc3S(=O)(=O)C(C)C)n2)c(OC2CC2)cc1C1CCOCC1
- IC50 [5]: 18 nM
- IC50 (NCI-H2228 [3]): 174 nM
- Ratio IC50 [4]: 21

Structure (SMILES): CC(=O)N1CCN([C@H]2CC[C@H](c3cc(OC4CC4)c(Nc4ncc(Cl)c(Nc5cn(C)nc5S(=O)(=O)C(C)C)n4)cc3C)CC2)CC1
- IC50 [5]: 7 nM
- IC50 (NCI-H2228 [3]): 76 nM
- Ratio IC50 [4]: 33
- inhibition in vivo at 20 mg/kg (Mus musculus [6]): 79.2%
- half-life [7]: 1.4 h
- AUC(0-inf) [8]: 445 ng·h/mL
- Vd [9]: 4.6 L/kg
- clearance [10]: 37.5 mL/min/kg
- half-life [11]: 4.5 h
- AUC(0-inf) [12]: 770 ng·h/mL
- Vd [13]: 8.5 L/kg
- clearance [14]: 21.9 mL/min/kg
- half-life [15]: 6.4 h
- AUC(0-inf) [16]: 1500 ng·h/mL
- Vd [17]: 6.1 L/kg
- clearance [18]: 11.1 mL/min/kg
- Cmax [19]: 446 ng/mL
- Tmax [20]: 0.5 h
- AUC(0-inf) [21]: 1700 ng·h/mL
- bioavailability [22]: 76.5%
- Cmax [23]: 220 ng/mL
- Tmax [24]: 6 h
- AUC(0-inf) [25]: 3200 ng·h/mL
- bioavailability [26]: 85.3%
- Cmax [27]: 355 ng/mL
- Tmax [28]: 1 h
- AUC(0-inf) [29]: 3340 ng·h/mL
- bioavailability [30]: 74%
- inhibition in vivo at 3 mg/kg (NCI-H2228 [31]): 50%
- inhibition in vivo at 30 mg/kg (NCI-H2228 [32]): 140%
- Activity (Mus musculus [33]): Non-toxic
- TGI (NCI-H2228 [34]): Dose-dependent effect
- TGI (NCI-H2228 [35]): Active
- TGI (NCI-H2228 [36]): Active

Structure (SMILES): Cc1cc(Nc2ncc(Cl)c(Nc3cn(C)nc3S(=O)(=O)C(C)C)n2)c(OC2CC2)cc1[C@H]1CC[C@H](NC(C)C)CC1
- IC50 [5]: 5 nM
- IC50 (NCI-H2228 [3]): 54 nM
- Ratio IC50 [4]: 16

Structure (SMILES): Cc1cc(Nc2ncnc(Nc3cn(C)nc3S(=O)(=O)C(C)C)n2)c(OC2CC2)cc1C1CCN(C)CC1
- IC50 [1]: 36 nM
- IC50 [2]: 111 nM

Structure (SMILES): Cc1cc(Nc2ncc(Cl)c(Nc3cn(C4CC4)nc3S(=O)(=O)C(C)C)n2)c(OC(C)C)cc1C1CCNCC1
- IC50 [5]: 37 nM
- IC50 (NCI-H2228 [3]): 248 nM

Structure (SMILES): Cc1cc(Nc2ncc(C#N)c(Nc3cn(C)nc3S(=O)(=O)C(C)C)n2)c(OC2CC2)cc1C1CCN(C)CC1
- IC50 (NCI-H2228 [3]): 87 nM

Structure (SMILES): Cc1cc(Nc2ncc(Cl)c(Nc3cn(C)nc3S(=O)(=O)C(C)C)n2)c(OC2CC2)cc1[C@H]1CC[C@@H](NC(C)C)CC1
- IC50 [1]: 5 nM
- IC50 [2]: 10 nM
- IC50 (NCI-H2228 [3]): 72 nM
- Ratio IC50 [4]: 15

Structure (SMILES): Cc1cc(Nc2ncc(Cl)c(Nc3cn(C)nc3S(=O)(=O)N(C)C)n2)c(OC(C)C)cc1C1CCNCC1
- IC50 [1]: 6680 nM
- IC50 [2]: > 10000 nM

Structure (SMILES): COc1ccc(Cn2cc(Nc3nc(Nc4cc(C)c(C5CCNCC5)cc4OC(C)C)ncc3Cl)c(S(=O)(=O)C(C)C)n2)cc1
- IC50 [1]: 129 nM
- IC50 [2]: 157 nM
- IC50 [5]: > 624 nM

Structure (SMILES): CCN(CC)[C@H]1CC[C@H](c2cc(OC3CC3)c(Nc3ncc(Cl)c(Nc4cn(C)nc4S(=O)(=O)C(C)C)n3)cc2C)CC1
- IC50 (NCI-H2228 [3]): 68 nM

Structure (SMILES): CNC(=O)c1nn(C)cc1Nc1nc(Nc2cc(C)c(C3CCN(C)CC3)cc2OC2CC2)ncc1Cl
- IC50 [1]: 12 nM
- IC50 [2]: 24 nM
- IC50 (NCI-H2228 [3]): 661 nM

Structure (SMILES): Cc1cc(Nc2ncc(Cl)c(Nc3cn(C)nc3S(=O)(=O)C(C)C(C)C)n2)c(OC(C)C)cc1C1CCNCC1 (stereo not given)
- IC50 [1]: 753 nM
- IC50 [2]: 3900 nM
- IC50 [5]: > 10000 nM
- IC50 (NCI-H2228 [3]): > 10000 nM

Structure (SMILES): CCn1cc(Nc2nc(Nc3cc(C)c(C4CCNCC4)cc3OC(C)C)ncc2Cl)c(S(=O)(=O)C(C)C)n1
- IC50 [1]: 20 nM
- IC50 [2]: 28 nM
- IC50 [5]: 68 nM
- IC50 (NCI-H2228 [3]): 764 nM

Structure (SMILES): Cc1cc(Nc2ncc(Cl)c(Nc3cn(C)nc3C#N)n2)c(OC2CC2)cc1C1CCN(C)CC1
- IC50 (NCI-H2228 [3]): 272 nM

Structure (SMILES): Cc1nc(S(=O)(=O)C(C)C)c(Nc2nc(Nc3cc(C)c(C4CCN(C)CC4)cc3OC3CC3)ncc2Cl)s1
- IC50 (NCI-H2228 [3]): 150 nM

Structure (SMILES): Cc1cc(Nc2ncc(Cl)c(Nc3cn(C)nc3S(C)(=O)=O)n2)c(OC(C)C)cc1C1CCNCC1
- IC50 [1]: 56 nM
- IC50 [2]: 94 nM
- IC50 [5]: 288 nM
